Our source for the IC50, EC50 and Ki values is patent publication US9963446B2, “Oxepan-2-yl-pyrazol-4-yl-heterocyclyl-carboxamide compounds and methods of use” (Genentech, Inc., priority 2014, dated 2018).

For one assay, the system named is BaF3 parental cells. Description: In vitro cell proliferation, BaF3 parental line + IL3. The note with it: Mus musculus; BaF3 parental line with mIL-3, incubated overnight; read-out: Prolif BaF3 + IL3 (IC50). The assay is classed as cell-based, murine. Here is the method: (§1) BaF3 parental line was obtained from the DSMZ repository. BaF3 lines transfected with PIM1 or PIM2 were generated. Mouse IL-3 was purchased from R&D Systems. G418 was purchased from Clontech. Media for BaF3 parental line contained RPMI, 10% FBS, 2 mM L-Glutamine, 2 ng/mL mIL-3. Media for BaF3 PIM1 & 2 lines contained RPMI, 10% FBS, 2 mM L-Glutamine, […]. Media for MM1.S (multiple myeloma cells) line contained RPMI, 10% FBS, 2 mM L-Glutamine.
(§2) BaF3, a murine interleukin-3 dependent pro-B cell line, parental cells, BaF3 PIM1 cells, BaF3 PIM2 cells, and MM1.S (multiple myeloma) cells were seeded at 2 k/well, 5 k/well, 5 k/well, and 10 k/well respectively, in a 384-well plate, at 45 μL/well. Test compound was added at 5 μL/well. BaF3 cells (parental and transfected) were incubated overnight, while MM1.S cells were incubated for 72 hours at 37° C., 5% CO2. CELL TITER GLO® Reagent (Promega) was added at 50 μL/well, the plates were incubated for 30 minutes, and their luminescence read on an HT Analyst. IC50/EC50 values for the test compound were calculated.

A further assay concerns BaF3 PIM1 cells. Briefly: In vitro cell proliferation, BaF3 transfected with PIM1. The assay is classed as cell-based, murine. The note with it: Mus musculus; BaF3 PIM1 line, incubated overnight; read-out: Prolif BaF3 PIM1 (IC50). How it is done:
as §1, §2

In assay [1] the test system is MM1.S (multiple myeloma) cells. Briefly: In vitro cell proliferation, MM1.S (CELL TITER GLO). The note with it: Homo sapiens, 72 hours, read-out: Prolif MM1S ATP (EC50). The assay is classed as cell-based. How it is done:
as §1, §2
(In ATP-based viability assays light output follows the ATP content of the culture.)

Another assay addresses PIM1 (Homo sapiens (Human), UniProt P11309). Briefly: Pim kinase binding activity (PIM1 LC3K Ki). Type of assay: biochemical. The following applies: 20 pM PIM1, 10 μM ATP, 90 minutes. Here is the method:
PIM-1, -2, and -3 enzymes were generated as fusion proteins expressed in bacteria and purified by IMAC column chromatography (Sun, X., Chiu, J. F., and He, Q. Y. (2005) Expert Rev. Proteomics, 2:649-657). A fluorescent-labeled Pim-specific peptide substrate, was custom synthesized by American Peptide Company (Sunnyvale, Calif.). Reaction Buffer contained 10 mM HEPES, pH 7.2, 10 mM MgCl2, 0.01% Tween 20, 2 mM DTT. Termination Buffer contained 190 mM HEPES, pH 7.2, 0.015% Brij-35, 0.2% Coating Reagent 3 (Caliper Life Sciences, Hopkinton, Mass.), 20 mM EDTA. Separation Buffer contained 100 mM HEPES, pH 7.2, 0.015% Brij-35, 0.1% Coating Reagent 3, 1:200 Coating Reagent 8 (Caliper Life Sciences, Hopkinton, Mass.), 10 mM EDTA and 5% DMSO.
PIM reactions were carried out in a final volume of 10 μL per well in a 384-well plate. A standard enzymatic reaction, initiated by the addition of 5 μL 2×ATP and test compound to 5 μL of 2× enzyme and FAM-peptide, contained 20 pM PIM1, 50 pM PIM2, or 55 pM PIM3, 1 μM FAM-peptide, and 10 μM ATP, in Reaction Buffer. After 90 minutes of incubation at room temperature, the phosphorylation reaction was stopped by the addition of 10 μL Termination Buffer. The product and substrate in each independent reaction were separated on a 12-sipper microfluidic chip (Caliper Life Sciences, Hopkinton, Mass.) run on a Caliper LC3000® (Caliper Life Sciences, Hopkinton, Mass.). The separation of product and substrate was optimized by choosing voltages and pressure using Caliper's Optimizer software (Hopkinton, Mass.). The separation conditions used a downstream voltage of −500V, an upstream voltage of −2150V, and a screening pressure of −1.2 psi. The product and substrate fluorophore were excited at 488 nm and detected at 530 nm. Substrate conversion was calculated from the electropherogram using HTS Well Analyzer software (Caliper Life Sciences, Hopkinton, Mass.). Ki values for the test compound were calculated. See Table 1 for representative PIM1 LC3K Ki in micromolar values of exemplary compounds.

Molecules are shown by their SMILES. Bounds are passed on as bounds.

PIM1, sequence (P11309 whole entry, the tested form may be a part): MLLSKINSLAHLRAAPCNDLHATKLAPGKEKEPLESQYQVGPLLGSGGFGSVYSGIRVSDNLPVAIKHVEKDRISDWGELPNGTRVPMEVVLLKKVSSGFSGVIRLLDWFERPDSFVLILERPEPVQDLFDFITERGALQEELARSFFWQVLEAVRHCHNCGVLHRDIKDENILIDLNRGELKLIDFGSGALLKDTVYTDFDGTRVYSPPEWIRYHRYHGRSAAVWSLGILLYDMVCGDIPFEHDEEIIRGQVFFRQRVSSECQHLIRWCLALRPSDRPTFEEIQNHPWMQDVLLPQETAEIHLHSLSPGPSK

Turning to `C[C@H](F)c1cc(F)c(-c2nc(C(=O)Nc3cnn(C)c3[C@@H]3CC[C@@H](N)[C@H](F)CO3)cs2)c(F)c1` [Example 101, N-(5-((2S,5R,6S)-5-amino-6-fluorooxepan-2-yl)-1-methyl-1H-pyrazol-4-yl)-2-(2,6-difluoro-4-((S)-1-fluoroethyl)phenyl)thiazole-4-carboxamide], the values for the IC50 in the assay with BaF3 parental cells and with BaF3 PIM1 cells were 7100 nM and 24.8 nM, respectively. For the same compound, in assay [1], the EC50 was 441 nM. In addition, on PIM1, the inhibitory constant (Ki) turned out to be 0.002 nM.

On to `Cn1ncc(NC(=O)c2csc(-c3c(O)cccc3F)n2)c1[C@@H]1CC[C@@H](N)[C@H](F)CO1` [Example 102, N-[5-[(2S,5R,6S)-5-amino-6-fluoro-oxepan-2-yl]-1-methyl-pyrazol-4-yl]-2-(2-fluoro-6-hydroxy-phenyl)thiazole-4-carboxamide], for which the IC50 amounted to 9100 nM with BaF3 parental cells and 164 nM with BaF3 PIM1 cells. For the same compound, in assay [1], the EC50 is 702 nM. The compound also yielded a Ki at PIM1 of 0.121 nM.

`N[C@H]1CC[C@H](c2c(NC(=O)c3csc(-c4c(F)cccc4F)n3)cnn2C2CC2)OC[C@@H]1F` [Example 103, N-[5-[(2R,5S,6R)-5-amino-6-fluoro-oxepan-2-yl]-1-cyclopropyl-pyrazol-4-yl]-2-(2,6-difluorophenyl)thiazole-4-carboxamide]: the IC50 was 12000 nM in the assay with BaF3 parental cells and 145 nM in the assay with BaF3 PIM1 cells. For the same compound, in assay [1], the EC50 stood at 731 nM. Further, the affinity on PIM1 corresponds to a Ki of 0.18 nM.

On to `Cn1ncc(NC(=O)c2csc(-c3ccc4c(c3)CCO4)n2)c1[C@@H]1CC[C@@H](N)[C@H](F)CO1` [Example 104, N-[5-[(2S,5R,6S)-5-amino-6-fluoro-oxepan-2-yl]-1-methyl-pyrazol-4-yl]-2-(2,3-dihydrobenzofuran-5-yl)thiazole-4-carboxamide], for which the values for the IC50 in the assay on BaF3 parental cells and in the assay on BaF3 PIM1 cells were 13200 nM and 98.5 nM, respectively. In assay [1], the EC50 amounted to 544 nM. Also, the Ki on PIM1 was found to be 0.104 nM.

Consider `Cn1ncc(NC(=O)c2csc(-c3cnccn3)n2)c1[C@@H]1CC[C@@H](N)[C@H](F)CO1` [Example 105, N-[5-[(2S,5R,6S)-5-amino-6-fluoro-oxepan-2-yl]-1-methyl-pyrazol-4-yl]-2-pyrazin-2-yl-thiazole-4-carboxamide], for which the IC50 was above 25000 nM in the assay on BaF3 parental cells and 142 nM in the assay on BaF3 PIM1 cells. In addition, in assay [1], the EC50 came to 473 nM. This compound showed a Ki on PIM1 of 0.095 nM.

As to `C[C@@H](F)c1cc(F)c(-c2nc(C(=O)Nc3cnn(C)c3[C@@H]3CC[C@@H](N)[C@H](F)CO3)cs2)c(F)c1` [Example 106, N-(5-((2S,5R,6S)-5-amino-6-fluorooxepan-2-yl)-1-methyl-1H-pyrazol-4-yl)-2-(2,6-difluoro-4-((R)-1-fluoroethyl)phenyl)thiazole-4-carboxamide], the figures for the IC50 in the assay with BaF3 parental cells and in the assay on BaF3 PIM1 cells were 8600 nM and 29.9 nM, respectively. Moreover, the EC50 in assay [1] came out at 235 nM. This compound came in with a Ki at PIM1 of 0.015 nM.

For `CO[C@H]1[C@H](C)O[C@@H](c2c(NC(=O)c3csc(-c4c(F)cccc4F)n3)cnn2C)CC[C@@H]1N` [Example 107, N-(5-((2R,5S,6R,7S)-5-amino-6-methoxy-7-methyloxepan-2-yl)-1-methyl-1H-pyrazol-4-yl)-2-(2,6-difluorophenyl)thiazole-4-carboxamide], the IC50 with BaF3 parental cells came out at 20700 nM; in the assay on BaF3 PIM1 cells it was 264 nM. For the same compound, the EC50 in assay [1] worked out at 5800 nM. Also, at PIM1, the affinity corresponds to a Ki of 0.1 nM.

Regarding `COc1cc(F)c(-c2nc(C(=O)Nc3cnn(C)c3[C@@H]3CC[C@@H](N)[C@H](F)CO3)cs2)cc1Cl` [Example 108, N-[5-[(2S,5R,6S)-5-amino-6-fluoro-oxepan-2-yl]-1-methyl-pyrazol-4-yl]-2-(5-chloro-2-fluoro-4-methoxy-phenyl)thiazole-4-carboxamide], the IC50 in the assay with BaF3 parental cells turned out to be 1900 nM; in the assay with BaF3 PIM1 cells, 80.5 nM. Besides, the EC50 in assay [1] was found to be 490 nM. This compound also came in with a Ki on PIM1 of 0.042 nM.

Regarding `Cn1ncc(NC(=O)c2csc(-c3c(F)cc4c(c3F)OCC[C@@H]4O)n2)c1[C@@H]1CC[C@@H](N)[C@H](F)CO1` [Example 111, N-(5-((2S,5R,6S)-5-amino-6-fluorooxepan-2-yl)-1-methyl-1H-pyrazol-4-yl)-2-((S)-6,8-difluoro-4-hydroxychroman-7-yl)thiazole-4-carboxamide], the IC50 is above 25000 nM with BaF3 parental cells and 96.2 nM with BaF3 PIM1 cells. Besides, the half-maximal effective concentration (EC50) in assay [1] was 1500 nM.

In the case of `N[C@@H]1CC[C@@H](c2c(NC(=O)c3csc(-c4c(F)cccc4F)n3)cnn2CC(F)F)OC[C@H]1F` [Example 115, N-(5-((2S,5R,6S)-5-amino-6-fluorooxepan-2-yl)-1-(2,2-difluoroethyl)-1H-pyrazol-4-yl)-2-(2,6-difluorophenyl)thiazole-4-carboxamide], the IC50 amounted to 5500 nM in the assay on BaF3 parental cells and 29.3 nM in the assay on BaF3 PIM1 cells. Further, the 50% effective concentration (EC50) in assay [1] was 181 nM.

As for `N[C@H]1CC[C@H](c2c(NC(=O)c3csc(-c4c(F)cccc4F)n3)cnn2CC(F)F)OC[C@@H]1F` [Example 116, N-(5-((2R,5S,6R)-5-amino-6-fluorooxepan-2-yl)-1-(2,2-difluoroethyl)-1H-pyrazol-4-yl)-2-(2,6-difluorophenyl)thiazole-4-carboxamide], the half-inhibitory concentration (IC50) with BaF3 parental cells was 10500 nM; in the assay with BaF3 PIM1 cells, 2750 nM. Besides, the EC50 in assay [1] came to 2700 nM.

With `C[C@@H]1O[C@H](c2c(NC(=O)c3csc(-c4c(F)cccc4F)n3)cnn2C)CC[C@@H](N)[C@@H]1F` [Example 124, N-[5-[(2S,5R,6S,7S)-5-amino-6-fluoro-7-methyl-oxepan-2-yl]-1-methyl-pyrazol-4-yl]-2-(2,6-difluorophenyl)thiazole-4-carboxamide], in assay [1], the EC50 turned out to be 54 nM. Affinity on PIM1 was put at a Ki of 0.051 nM.

For `Cn1ncc(NC(=O)c2csc(-c3cn4ccncc4n3)n2)c1[C@@H]1CC[C@@H](N)[C@H](F)CO1` [Example 125, N-(5-((2S,5R,6S)-5-amino-6-fluorooxepan-2-yl)-1-methyl-1H-pyrazol-4-yl)-2-(imidazo[1,2-a]pyrazin-2-yl)thiazole-4-carboxamide], the EC50 in assay [1] is above 25000 nM. Besides, the Ki at PIM1 was determined as 32.8 nM.

For the compound `N[C@H]1CC[C@H](c2[nH]ncc2NC(=O)c2csc(-c3c(F)cccc3F)n2)OC[C@@H]1F` [Example 126, N-(5-((2R,5S,6R)-5-amino-6-fluorooxepan-2-yl)-1H-pyrazol-4-yl)-2-(2,6-difluorophenyl)thiazole-4-carboxamide], in assay [1], the EC50 was determined as 8000 nM. At PIM1, this compound registered a Ki of 1.48 nM.

Turning to `Cc1cccnc1-c1nc(C(=O)Nc2cn[nH]c2[C@H]2CC[C@H](N)[C@@H](F)CO2)cs1` [Example 127, N-(5-((2R,5S,6R)-5-amino-6-fluorooxepan-2-yl)-1H-pyrazol-4-yl)-2-(3-methylpyridin-2-yl)thiazole-4-carboxamide], the 50% effective concentration (EC50) in assay [1] worked out at 10800 nM. Further, at PIM1, the inhibition constant (Ki) stood at 1.1 nM.

Take `Cc1cccnc1-c1nc(C(=O)Nc2cn[nH]c2[C@@H]2CC[C@@H](N)[C@H](F)CO2)cs1` [Example 128, N-(5-((2S,5R,6S)-5-amino-6-fluorooxepan-2-yl)-1H-pyrazol-4-yl)-2-(3-methylpyridin-2-yl)thiazole-4-carboxamide]: the EC50 in assay [1] was determined as 3000 nM. Besides, the affinity at PIM1 corresponds to a Ki of 0.777 nM.

On to `N[C@@H]1CC[C@@H](c2[nH]ncc2NC(=O)c2csc(-c3c(F)cccc3F)n2)OC[C@H]1F` [Example 129, N-(5-((2S,5R,6S)-5-amino-6-fluorooxepan-2-yl)-1H-pyrazol-4-yl)-2-(2,6-difluorophenyl)thiazole-4-carboxamide], for which the EC50 in assay [1] is 7300 nM. Also, the Ki on PIM1 worked out at 0.958 nM.

What is called IC50 is the concentration needed to halve the response being measured. By EC50 is commonly meant the concentration at which the effect is half-maximal. As usually defined, the Ki is the equilibrium dissociation constant of an inhibitor or competing ligand from its target.
